Measured values reported in ChEMBL document CHEMBL3045764, “Synthesis of Both Enantiomers of Altholactone, Isoaltholactone and 5-Hydroxygoniothalamin from Tri-O-acetyl-D-glucal, and Their Biological Activities” (J Pestic Sci, 2001).

Experiments:
[1] = Toxicity in Artemia salina (brine shrimp) assessed as death rate after 1.5 days (reference value: 5%); assay type: organism-based; settings: in vivo, read-out: Activity
[2] = system: Lactuca sativa; test: Inhibition of Lactuca sativa (lettuce) seed germination assessed as elongation of root by measuring germination rate (reference value: 75%); assay type: functional

Row | SMILES | mortality at 36 h [1] | inhibition (INH) [2]
1 | O=C1C=C[C@H]2O[C@H](c3ccccc3)[C@H](O)[C@@H]2O1 | 31% | 56%
2 | O=C1C=C[C@H]2O[C@H](c3ccccc3)[C@@H](O)[C@@H]2O1 | 48% | 63%
3 | O=C1C=C[C@@H]2O[C@H](c3ccccc3)[C@H](O)[C@@H]2O1 [(+)-ISOALTHOLACTONE] | 13% | 25%
4 | O=C1C=C[C@@H]2O[C@H](c3ccccc3)[C@@H](O)[C@@H]2O1 [ALTHOLACTONE] | 40% | 50%
5 | O=C1C=C[C@H]2O[C@@H](c3ccccc3)[C@H](O)[C@H]2O1 [ENT-ALTHOLACTONE] | 31% | 5%
6 | O=C1C=C[C@H]2O[C@H](c3ccccc3)[C@@H](O)[C@H]2O1 [ENT-ISOALTHOLACTONE] | 8% | 69%
